Legend:
Assay type in all cases: biochemical
[1] = target: T1, BTK (Homo sapiens, UniProt Q06187); experiment: BTK kinase assay (HotSpot, 33P ATP); settings: for BTK @ 0.1 μM (% Inh): 0.1 μM compound; for BTK @ 0.1 μM (% Inh) / BTK @ 1 μM (% Inh) / BTK @ 0.01 μM (% Inh): 10 μM ATP; for BTK @ 1 μM (% Inh): 1 μM compound; for IC50: 10 dose IC50, 10 μM ATP; for BTK @ 0.01 μM (% Inh): 0.01 μM compound
T1 construct: purchased Reaction Biology Corporation
Outline: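 In 20 mM Hepes (pH 7.5) with 10 mM MgCl2, 1 mM EGTA, 0.1 mM Na3VO4, 2 mM DTT, 0.02% Brij35, 0.02 mg/mL BSA and 1% DMSO, kinase and substrate were exposed to ten compound doses for 15–20 min.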

[2] = target: T2, PI3Kγ (Homo sapiens, UniProt P48736); experiment: PI3Kγ isoform profiling (PI3Kδ protocol); settings: for PI3Kγ @ 0.3 μM (% Inh): 0.3 μM compound; for IC50: 10 dose IC50
T2 construct: purchased Reaction Biology Corporation
Source text: PI3Kδ assay: The PIP3 product is detected by displacement of biotin-PIP3 from an energy transfer complex consisting of Europium labeled anti-GST monoclonal antibody, a GST-tagged pleckstrin homology (PH) domain, biotinylated PIP3 and Streptavidin-Allophycocyanin (APC). Excitation of Europium in the complex results in an energy transfer to the APC and a fluorescent emission at 665 nm. The PIP3 product formed by PI 3-Kinase(h) activity displaces biotin-PIP3 from the complex resulting in a loss of energy transfer and thus a decrease in signal. This is a 3-step reaction: First, the kinase reaction with PIP2 substrate is carried out in the presence of ATP (10 μM), and the reaction is quenched with stop Solution, and then finally detect by adding Detection Mixture followed by incubation (10 min). Reaction procedure: 1) Prepare substrate in freshly prepared Reaction Buffer. 2) Deliver kinase into the substrate solution and gently mix. 3) Deliver compounds in 100% DMSO (1 μM) into the kinase reaction mixture by Acoustic technology (Echo550; nanoliter range), incubate for 10 min at RT. 4) Deliver ATP into the reaction mixture to initiate the reaction. 5) Incubate for 30 min at 30° C. 6) Quench the reaction with Stop Solution. 7) Add Detection Mixture, and incubate for overnight. 8) Measure HTRF: Ex=320 nm, ratio of Em=615 nm and Em=665 nm. The emission ratio is converted into μM PIP3 production based on PIP3 standard curves. The nonlinear regression to obtain the standard curve and IC50 values are performed using Graphpad Prism software. Assay Buffer: HEPES 50 mM (pH7.0), NaN3 0.02%, BSA 0.01%, Orthovanadate 0.1 mM, 1% DMSO. Detection buffer: HEPES 10 mM (pH7.0), BSA 0.02%, KF 0.16 M, EDTA 4 mM. Substrate: 10 μM PIP2 substrate (PI(4,5)P2).
Compounds of the invention were profiled in a 10 dose IC50 panel against PI3Kα, PI3Kβ, and PI3Kγ kinases, provided by Reaction Biology Corporation, applied to the PI3Kδ protocol provided in Example B1.

[3] = target: T3, BMX/ETK (Homo sapiens, UniProt P51813); experiment: BMX/ETK kinase profiling (BTK protocol); settings: for BMX/ETK @ 0.3 μM (% Inh): 0.3 μM compound; for IC50: 10 dose IC50
T3 construct: purchased Reaction Biology Corporation
T3 sequence (P51813 1-675): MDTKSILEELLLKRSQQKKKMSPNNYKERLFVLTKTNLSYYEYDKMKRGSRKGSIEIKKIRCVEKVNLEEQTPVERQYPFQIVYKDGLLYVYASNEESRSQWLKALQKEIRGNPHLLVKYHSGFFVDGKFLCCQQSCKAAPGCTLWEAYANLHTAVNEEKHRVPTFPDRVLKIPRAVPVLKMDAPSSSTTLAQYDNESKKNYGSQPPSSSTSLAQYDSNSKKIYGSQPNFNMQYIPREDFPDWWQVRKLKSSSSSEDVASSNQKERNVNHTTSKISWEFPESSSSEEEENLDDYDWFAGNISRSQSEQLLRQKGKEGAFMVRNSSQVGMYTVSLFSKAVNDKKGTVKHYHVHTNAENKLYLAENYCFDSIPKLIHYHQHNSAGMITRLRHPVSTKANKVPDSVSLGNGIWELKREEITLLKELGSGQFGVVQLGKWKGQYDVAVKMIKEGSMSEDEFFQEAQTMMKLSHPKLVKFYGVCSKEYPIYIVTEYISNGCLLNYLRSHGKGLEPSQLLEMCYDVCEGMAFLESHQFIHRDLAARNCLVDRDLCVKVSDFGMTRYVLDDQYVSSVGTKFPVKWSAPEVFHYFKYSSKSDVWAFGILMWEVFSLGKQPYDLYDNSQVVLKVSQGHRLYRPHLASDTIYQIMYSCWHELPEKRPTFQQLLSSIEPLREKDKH
Method: BTK assay: In vitro profiling protein kinases was performed using the “HotSpot” assay platform. Briefly, specific kinase/substrate pairs along with required cofactors were prepared in reaction buffer. Compounds were prepared as 10 mM stock solutions in DMSO. Compounds were delivered into the reaction, followed 15-20 minutes later by addition of a mixture of ATP (Sigma, St. Louis Mo.) and ^33P ATP (Perkin Elmer, Waltham Mass.) to a final concentration of 10 μM. Reactions were carried out at RT for 120 min, followed by spotting of the reactions onto P81 ion exchange filter paper (Whatman Inc., Piscataway, N.J.). Unbound phosphate was removed by extensive washing of filters in 0.75% Phosphoric acid. […] IC50 values and curve fits were obtained using Prism (GraphPad Software). Buffer Conditions: 20 mM Hepes (pH 7.5), 10 mM MgCl2, 1 mM EGTA, 0.02% Brij35, 0.02 mg/mL BSA, 0.1 mM Na3VO4, 2 mM DTT, 1% DMSO.
Compounds of the invention were profiled in a 10 dose IC50 panel against BMX/ETK, ITK and TEC kinases, provided by Reaction Biology Corporation, applied to the BTK protocol provided in Example B1.

T1 sequence (Q06187 whole entry): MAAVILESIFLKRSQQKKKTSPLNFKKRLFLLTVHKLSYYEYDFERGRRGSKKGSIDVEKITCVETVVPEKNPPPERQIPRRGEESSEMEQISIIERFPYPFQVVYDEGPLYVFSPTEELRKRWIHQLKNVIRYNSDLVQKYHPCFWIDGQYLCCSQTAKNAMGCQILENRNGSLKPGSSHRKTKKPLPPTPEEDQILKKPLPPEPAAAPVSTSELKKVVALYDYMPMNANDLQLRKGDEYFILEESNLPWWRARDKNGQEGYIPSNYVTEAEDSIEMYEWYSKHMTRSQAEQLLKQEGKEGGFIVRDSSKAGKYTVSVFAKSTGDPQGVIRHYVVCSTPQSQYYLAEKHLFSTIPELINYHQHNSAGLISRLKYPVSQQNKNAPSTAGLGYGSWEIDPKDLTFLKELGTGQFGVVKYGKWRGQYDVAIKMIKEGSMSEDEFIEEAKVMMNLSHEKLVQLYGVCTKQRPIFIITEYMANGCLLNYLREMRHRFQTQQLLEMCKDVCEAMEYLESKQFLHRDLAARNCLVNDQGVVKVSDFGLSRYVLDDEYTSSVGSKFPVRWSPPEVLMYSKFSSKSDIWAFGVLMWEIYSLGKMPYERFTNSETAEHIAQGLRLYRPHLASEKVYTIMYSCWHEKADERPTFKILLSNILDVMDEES
T2 sequence (P48736 whole entry, canonical isoform): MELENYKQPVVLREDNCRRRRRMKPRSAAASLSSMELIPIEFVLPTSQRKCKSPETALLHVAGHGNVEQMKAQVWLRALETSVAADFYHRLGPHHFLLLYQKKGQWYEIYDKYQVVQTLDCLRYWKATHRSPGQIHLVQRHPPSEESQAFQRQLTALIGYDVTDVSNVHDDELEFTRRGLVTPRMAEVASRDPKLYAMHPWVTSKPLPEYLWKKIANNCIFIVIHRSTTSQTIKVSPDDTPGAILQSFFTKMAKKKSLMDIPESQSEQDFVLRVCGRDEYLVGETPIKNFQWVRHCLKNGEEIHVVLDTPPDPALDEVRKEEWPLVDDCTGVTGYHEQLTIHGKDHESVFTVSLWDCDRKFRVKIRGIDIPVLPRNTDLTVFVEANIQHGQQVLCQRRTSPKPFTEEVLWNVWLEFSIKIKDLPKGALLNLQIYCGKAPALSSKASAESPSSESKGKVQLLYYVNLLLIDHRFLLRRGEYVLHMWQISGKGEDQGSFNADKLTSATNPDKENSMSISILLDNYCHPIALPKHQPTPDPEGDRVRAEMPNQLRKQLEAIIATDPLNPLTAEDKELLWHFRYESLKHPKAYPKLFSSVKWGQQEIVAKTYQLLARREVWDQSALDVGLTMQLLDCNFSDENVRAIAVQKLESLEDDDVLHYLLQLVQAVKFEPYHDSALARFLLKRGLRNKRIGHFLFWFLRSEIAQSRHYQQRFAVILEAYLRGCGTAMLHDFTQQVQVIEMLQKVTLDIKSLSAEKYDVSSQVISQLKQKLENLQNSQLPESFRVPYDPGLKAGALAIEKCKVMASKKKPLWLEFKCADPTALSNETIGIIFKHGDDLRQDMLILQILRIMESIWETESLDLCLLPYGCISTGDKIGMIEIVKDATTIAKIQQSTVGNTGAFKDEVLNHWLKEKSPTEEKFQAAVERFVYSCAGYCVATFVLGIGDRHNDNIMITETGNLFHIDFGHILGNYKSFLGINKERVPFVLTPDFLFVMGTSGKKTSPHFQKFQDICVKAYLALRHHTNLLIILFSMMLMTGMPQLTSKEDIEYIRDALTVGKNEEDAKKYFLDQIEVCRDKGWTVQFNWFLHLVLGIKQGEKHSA

| SMILES | BTK @ 0.1 μM (% Inh) [1] [% Inh] | BTK @ 1 μM (% Inh) [1] [% Inh] | IC50 [1] [nM] | PI3Kγ @ 0.3 μM (% Inh) [2] [% Inh] | BMX/ETK @ 0.3 μM (% Inh) [3] [% Inh] | IC50 [2] [nM] | IC50 [3] [nM] | BTK @ 0.01 μM (% Inh) [1] [% Inh] |
| --- | --- | --- | --- | --- | --- | --- | --- | --- |
| Nc1ncnc2c1c(-c1cc(O)c(F)c(C(F)(F)F)c1)nn2C1Cc2ccccc2C1 [Compound No. 102, 5-[4-amino-1-(2,3-dihydro-1H-inden-2-yl)-1H-pyrazolo[3,4-d]pyrimidin-3-yl]-2-fluoro-3-(trifluoromethyl)phenol] | 0.67 | 9.91 | > 1000 | 57.81 | 4.6 | – | – | – |
| Nc1ncnc2c1c(-c1ccc(F)c(O)c1)nn2C1CCc2ccccc2C1 (single isomer, unassigned) [Compound No. 26a, 5-(4-amino-1-(1,2,3,4-tetrahydronaphthalen-2-yl)-1H-pyrazolo[3,4-d]pyrimidin-3-yl)-2-fluorophenol] | 84.11 | – | 10.4 | – | – | 405 | 3.1 | – |
| Nc1ncnc2c1c(-c1ccc(F)c(O)c1)nn2C1CCc2ccccc2C1 (single isomer, unassigned) [Compound No. 26b, 5-(4-amino-1-(1,2,3,4-tetrahydronaphthalen-2-yl)-1H-pyrazolo[3,4-d]pyrimidin-3-yl)-2-fluorophenol] | 82.1 | – | 20.9 | – | – | 455 | 6.2 | – |
| COc1ccc(-c2nn(C3Cc4ccccc4C3)c3ncnc(N)c23)cc1O [Compound No. 68, 5-[4-amino-1-(2,3-dihydro-1H-inden-2-yl)-1H-pyrazolo[3,4-d]pyrimidin-3-yl]-2-methoxyphenol] | 54.54 | 89.54 | 84.3 | 51.6 | 78.92 | – | – | – |
| Nc1ncnc2c1c(-c1ccc3cc[nH]c3c1)nn2C1CCc2ccccc2C1 (racemic) [compound 18, 3-(1H-indol-6-yl)-1-(1,2,3,4-tetrahydronaphthalen-2-yl)-1H-pyrazolo[3,4-d]pyrimidin-4-amine] | 38.26 | – | 258 | 19.7 | 73.26 | – | – | – |
| Nc1ncnc2c1c(-c1ccc(Cl)c(O)c1)nn2C1Cc2ccccc2C1 [Compound No. 56, 5-[4-amino-1-(2,3-dihydro-1H-inden-2-yl)-1H-pyrazolo[3,4-d]pyrimidin-3-yl]-2-chlorophenol] | 90.244 | 98.64 | 13.5 | 62.17 | 86.63 | – | – | – |
| Nc1ncnc2c1c(-c1ccc(F)c(O)c1)nn2C1Cc2ccccc2C1 [Compound No. 29, 5-(4-amino-1-indan-2-yl-pyrazolo[3,4-d]pyrimidin-3-yl)-2-fluoro-phenol] | 90.90 | – | 7 | – | – | 196 | 0.8 | – |
| Nc1ncnc2c1c(-c1cc(O)c(F)c(F)c1)cn2C1Cc2ccccc2C1 [Compound No. 101, 5-[4-amino-7-(2,3-dihydro-1H-inden-2-yl)-7H-pyrrolo[2,3-d]pyrimidin-5-yl]-2,3-difluorophenol] | 94.7 | – | 2.47 | 57.6 | 97.14 | – | – | 78.34 |
| Nc1ncnc2c1c(-c1cc(O)cc(F)c1)nn2C1CCc2ccccc2C1 (stereo not drawn) [compound 6, 3-(4-amino-1-(1,2,3,4-tetrahydronaphthalen-2-yl)-1H-pyrazolo[3,4-d]pyrimidin-3-yl)-5-fluorophenol] | – | – | 86.4 | – | – | 122 | 184 | – |
| Nc1ncnc2c1c(-c1cc(O)c(Cl)c(Cl)c1)cn2C1Cc2ccccc2C1 [Compound No. 107, 5-[4-amino-7-(2,3-dihydro-1H-inden-2-yl)-7H-pyrrolo[2,3-d]pyrimidin-5-yl]-2,3-dichlorophenol] | – | – | 8.7 | 45.49 | 90.55 | – | – | – |
| Nc1ncnc2c1c(-c1cc(F)c3c(c1)NCCO3)nn2C1Cc2ccccc2C1 [Compound No. 84, 1-(2,3-dihydro-1H-inden-2-yl)-3-(8-fluoro-3,4-dihydro-2H-1,4-benzoxazin-6-yl)-1H-pyrazolo[3,4-d]pyrimidin-4-amine] | 51.83 | 90.69 | 104 | 55.61 | 62.51 | – | – | – |
| N#Cc1cc(-c2cn(C3Cc4ccccc4C3)c3ncnc(N)c23)cc(O)c1F [compound 115, 5-[4-amino-7-(2,3-dihydro-1H-inden-2-yl)-7H-pyrrolo[2,3-d]pyrimidin-5-yl]-2-fluoro-3-hydroxybenzonitrile] | 50.43 | – | 80.1 | 59.21 | 72.12 | – | – | 12.09 |
| Nc1ncnc2c1c(-c1cc(O)c(F)c(Cl)c1)cn2C1Cc2ccccc2C1 [compound 110, 5-[4-amino-7-(2,3-dihydro-1H-inden-2-yl)-7H-pyrrolo[2,3-d]pyrimidin-5-yl]-3-chloro-2-fluorophenol] | 91.79 | – | 2.5 | 47.05 | 92.59 | – | – | 55.15 |

— patent US20210317140A1, “Heterocyclic Compounds and Methods of Use” (MEDIVATION TECHNOLOGIES, INC, priority 2013, published 2021)
